Reference: ChEMBL document CHEMBL1149727, “Sesquiterpenes from clove (Eugenia caryophyllata) as potential anticarcinogenic agents” (1992)

Key:
Mus musculus [1] = assay: Ratio of drug to control in induction of cytosolic Glutathione S-transferase activity per mg of protein in A/J mouse liver at 20 mg, po for once every 2 days for total three doses measured after 24 hrs of last dose; type: functional
Mus musculus [2] = assay: Induction of cytosolic Glutathione S-transferase activity per mg of protein in A/J mouse small bowel mucosa at 20 mg, po for once every 2 days for total three doses measured after 24 hrs of last dose; type: functional
Mus musculus [3] = assay: Ratio of drug to control in induction of cytosolic Glutathione S-transferase activity per mg of protein in A/J mouse small bowel mucosa at 20 mg, po for once every 2 days for total three doses measured after 24 hrs of last dose; type: functional
Mus musculus [4] = assay: Ratio of drug to control in induction of cytosolic Glutathione S-transferase activity per mg of protein in A/J mouse forestomach at 20 mg, po for once every 2 days for total three doses measured after 24 hrs of last dose; type: functional, Stomach
Mus musculus [5] = assay: Induction of cytosolic Glutathione S-transferase activity per mg of protein in A/J mouse liver at 20 mg, po for once every 2 days for total three doses measured after 24 hrs of last dose; type: functional
Mus musculus [6] = assay: Induction of cytosolic Glutathione S-transferase activity per mg of protein in A/J mouse forestomach at 20 mg, po for once every 2 days for total three doses measured after 24 hrs of last dose; type: functional, Stomach

C=CCc1ccc(O)c(OC)c1 [EUGENOL]
Ratio (Mus musculus [1]): 1.26
Activity (Mus musculus [2]): 0.59 µmol/min
Ratio (Mus musculus [3]): 2.36
Ratio (Mus musculus [4]): 1.21
Activity (Mus musculus [5]): 0.93 µmol/min
Activity (Mus musculus [6]): 0.75 µmol/min

C/C1=C\CC[C@@]2(C)O[C@@H]2CC(C)(C)/C=C/C1
Ratio (Mus musculus [1]): 2.08
Activity (Mus musculus [2]): 0.81 µmol/min
Ratio (Mus musculus [3]): 3.24
Ratio (Mus musculus [4]): 1.24
Activity (Mus musculus [5]): 1.54 µmol/min
Activity (Mus musculus [6]): 0.77 µmol/min

C=C1CC[C@@H]2O[C@]2(C)CC[C@@H]2[C@@H]1CC2(C)C
Ratio (Mus musculus [1]): 2.88
Activity (Mus musculus [2]): 1.2 µmol/min
Ratio (Mus musculus [3]): 4.8
Ratio (Mus musculus [4]): 0.95
Activity (Mus musculus [5]): 2.13 µmol/min
Activity (Mus musculus [6]): 0.59 µmol/min

C/C1=C\CC/C(C)=C/CC(C)(C)/C=C/C1 [ALPHA-HUMULONE]
Ratio (Mus musculus [1]): 1.99
Activity (Mus musculus [2]): 0.63 µmol/min
Ratio (Mus musculus [3]): 2.52
Ratio (Mus musculus [4]): 1.02
Activity (Mus musculus [5]): 1.47 µmol/min
Activity (Mus musculus [6]): 0.63 µmol/min

C=C1CC/C=C(\C)CC[C@@H]2[C@@H]1CC2(C)C [BETA-CARYOPHYLLENE]
Ratio (Mus musculus [1]): 2.59
Activity (Mus musculus [2]): 0.75 µmol/min
Ratio (Mus musculus [3]): 3
Ratio (Mus musculus [4]): 1.24
Activity (Mus musculus [5]): 1.92 µmol/min
Activity (Mus musculus [6]): 0.77 µmol/min
